From US8609671B2, “Method of inhibiting hepatic fibrosis as a result of liver replacement or repair using A2B adenosine receptor antagonists” (Gilead Sciences, Inc., priority 2006, dated 2013)
“Also recorded” adds a separate entry of the source.

Tests used:
HHSCs [1] = assay: Measurement of cAMP accumulation in HHSCs; assay type: cell-based, human; details: for effect of agonist on cellular cAMP accumulation: with rolipram 50 μM, 15 min, CGS-21680 (=10 μM); for effect on forskolin-induced cellular cAMP accumulation: agonist 1 μM, forskolin 10 μM
Protocol: (§1) Primary cultured normal human hepatic stellate Cells (HHSCs) were obtained from ScienCell Research Laboratories (San Diego, Calif.) and cultured using stellate cell growth medium (ScienCell Research Laboratories). HHSCs were routinely grown in a humidified incubator with 5% CO2 at 37° C. and reseeded when they reached about 80-90% confluency. Each re-seeding is called a passage. Cells from passages 2 to 5 were used in the following studies.
Cells were harvested using 0.0025% trypsin and 2 mM EDTA in PBS, washed and resuspended in phenol-free DMEM to a concentration of 1×10^6 cells/ml, and then incubated with 1 U/ml of ADA for 30 min at room temperature. Cells were then treated with AdoR agonists, antagonists, and forskolin in the presence of 50 μM of the phosphodiesterase IV inhibitor, rolipram. After incubating for 15 min at 37° C., cells were lysed and cAMP concentrations were determined using cAMP-Screen Direct™ System (Applied Biosystems) according to the manufacturer's instructions.

HHSCs [2] = assay: Collagen production by HHSCs (Sircol collagen assay); assay type: cell-based, human; details: 24 h
Protocol: (§2) HHSCs were seeded into 12-well tissue culture plates at a density of 1×10^5 cells/well in stellate cell growth medium and allowed to adhere overnight and reach ˜90% confluency. Cells were washed twice in HEPES buffered saline, and cultured in DMEM containing various agonists or antagonists of AdoRs for 1 or 24 h.
(§3) The concentration of IL-6 in the cell medium was determined using ELISA kits obtained from Biosource (Camarillo, Calif.) according to the manufacturer's instructions. The minimal detection levels of IL-6 with these kits were 2 pg/ml. The concentration of soluble collagen in the cell medium was measured using the Sircol collagen assay (Biocolor Ltd., Belfast N. Ireland) according to manufacture's instructions. The activity of AST in mouse plasma was determined using the Infinity™ AST assay (Thermo Electron Corporation, Waltham, Mass.)

HHSCs [3] = assay: mRNA levels of α-smooth muscle actin and α-1 pro-collagen in HHSCs (real-time RT-PCR); assay type: cell-based, human; details: NECA 10 μM, 1 h
Protocol: HHSCs were seeded into 12-well tissue culture plates at a density of 1×10^5 cells/well in stellate cell growth medium and allowed to adhere overnight and reach ˜90% confluency. Cells were washed twice in HEPES buffered saline, and cultured in DMEM containing various agonists or antagonists of AdoRs for 1 or 24 h. Total RNA was extracted from HHSCs using the Stratagene Absolutely RNA™ RT-PCR Miniprep Kit followed by DNase treatment to eliminate potential genomic DNA contamination. Real-time RT-RCR for adenosine receptors was performed as previously described in Zhong et al. (2004) Am J Respir Cell Mol Biol; 30(1):118-125. The specific primers for α-smooth muscle actin used were: while the primers for α-1 pro-collagen were: and each of these primers were designed using Primer Express 2.0 (Applied Biosystems) following the recommended guidelines based on sequences from Genbank. At the end of the PCR cycle, a dissociation curve was generated to ensure the amplification of a single product, and the threshold cycle time (Ct value) for each gene was determined. Relative mRNA levels were calculated based on the Ct values, normalized to β-actin in the same sample, and presented as percentages of β-actin mRNA. Measurement of cAMP Accumulation

HHSCs [4] = assay: IL-6 release by HHSCs (ELISA); assay type: cell-based, human; set-up: maximal increase of IL-6 release over the basal level: concentration or dose not given beside the values
Protocol: as §1, §2, §3

[5] = molecular target: T1, Human A2A adenosine receptor (Homo sapiens, UniProt P29274); details: read-out: affinity for A2A receptor (Ki); cited from earlier work
T1 construct: expressed in transfected cells; host or cells: HEK-293 (HEK-A2A), membrane preparation

[6] = molecular target: T2, Human A1 adenosine receptor (Homo sapiens, UniProt P30542); details: read-out: affinity for A1 receptor (Ki); cited from earlier work
T2 sequence (P30542 1-326): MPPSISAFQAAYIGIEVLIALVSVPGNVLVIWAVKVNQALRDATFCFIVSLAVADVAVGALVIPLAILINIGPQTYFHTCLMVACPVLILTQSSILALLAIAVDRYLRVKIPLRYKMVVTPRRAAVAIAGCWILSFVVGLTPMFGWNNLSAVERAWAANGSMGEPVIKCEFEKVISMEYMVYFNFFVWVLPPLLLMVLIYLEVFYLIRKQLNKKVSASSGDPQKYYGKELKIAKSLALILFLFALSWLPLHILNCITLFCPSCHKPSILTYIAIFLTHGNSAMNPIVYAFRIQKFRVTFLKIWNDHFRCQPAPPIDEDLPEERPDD

[7] = molecular target: T3, Human A3 adenosine receptor (Homo sapiens, UniProt P0DMS8); details: read-out: affinity for A3 receptor (Ki); cited from earlier work
T3 construct: expressed in transfected cells; host or cells: CHO (CHO-A3), membrane preparation
T3 sequence (P0DMS8 1-318): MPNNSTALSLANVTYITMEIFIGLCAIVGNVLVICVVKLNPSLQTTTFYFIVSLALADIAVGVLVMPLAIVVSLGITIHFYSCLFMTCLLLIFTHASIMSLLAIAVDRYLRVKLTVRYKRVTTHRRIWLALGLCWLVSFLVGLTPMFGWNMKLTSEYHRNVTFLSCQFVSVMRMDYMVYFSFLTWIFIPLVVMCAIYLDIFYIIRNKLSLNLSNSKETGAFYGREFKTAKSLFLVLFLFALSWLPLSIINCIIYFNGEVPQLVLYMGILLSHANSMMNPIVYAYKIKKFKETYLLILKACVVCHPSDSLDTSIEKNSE

ADA^−/− mice = assay: Plasma AST levels in ADA-deficient mice; assay type: in vivo; details: 1 mg/kg per injection i.p. morning and evening for 17 days, vs vehicle
Protocol: as §3
Adenosine deaminase (ADA)-deficient mice were generated and genotyped as described in Blackburn et al. (1998), J Biol Chem, 273(9):5093-5100. Mice homozygous for the null Ada allele were designated ADA-deficient (ADA^−/−), while mice heterozygous for the null Ada allele were designated as ADA control mice (ADA^+). All mice were on a mixed 129sv/C57BL/6J background and all phenotypic comparisons were performed amongst littermates. Animal care was in accordance with institutional and NIH guidelines. Mice were housed in ventilated cages equipped with microisolator lids and maintained under strict containment protocols. No evidence of bacterial, parasitic, or fungal infection was found, and serologies on cage littermates were negative for 12 of the most common murine viruses. […]

T1 sequence (P29274 whole entry): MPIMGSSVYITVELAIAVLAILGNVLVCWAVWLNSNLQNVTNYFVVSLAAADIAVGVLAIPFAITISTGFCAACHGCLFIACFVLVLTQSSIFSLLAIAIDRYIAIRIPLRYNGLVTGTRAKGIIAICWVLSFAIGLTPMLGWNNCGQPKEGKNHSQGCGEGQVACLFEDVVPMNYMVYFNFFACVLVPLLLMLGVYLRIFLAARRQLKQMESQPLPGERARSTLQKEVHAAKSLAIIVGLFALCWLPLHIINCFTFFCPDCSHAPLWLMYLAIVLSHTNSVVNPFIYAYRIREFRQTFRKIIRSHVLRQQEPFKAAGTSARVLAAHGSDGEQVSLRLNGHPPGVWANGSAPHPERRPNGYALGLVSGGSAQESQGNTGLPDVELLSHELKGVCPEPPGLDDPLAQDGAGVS

CCNC(=O)[C@H]1O[C@@H](n2cnc3c(N)nc(NCCc4ccc(CCC(=O)O)cc4)nc32)[C@H](O)[C@@H]1O [CGS-21680]
effect of agonist on cellular cAMP accumulation (HHSCs [1]): did not cause a significant increase

OC[C@H]1O[C@@H](n2cnc3c(NC4CCCC4)ncnc32)[C@H](O)[C@@H]1O [CPA, N6-cyclopentyladenosine]
effect on forskolin-induced cellular cAMP accumulation (HHSCs [1]): Lack of effect; also recorded: failed to inhibit

CNC(=O)[C@H]1O[C@@H](n2cnc3c(NCc4cccc(I)c4)ncnc32)[C@H](O)[C@@H]1O [IB-MECA]
effect on forskolin-induced cellular cAMP accumulation (HHSCs [1]): Lack of effect; also recorded: failed to inhibit

CCNC(=O)[C@H]1O[C@@H](n2cnc3c(N)ncnc32)[C@H](O)[C@@H]1O [NECA, 5′-(N-ethylcarboxamido)-adenosine]
release of soluble collagen (HHSCs [2]): increased; also recorded: significant increase
expression of α-1 pro-collagen mRNA (HHSCs [3]): significantly increased
expression of α-smooth muscle actin mRNA (HHSCs [3]): significantly increased
maximal increase of IL-6 release over the basal level (HHSCs [4]): 11.9±3.1 fold
effect on IL-6 release (HHSCs [4]; 24 h): increased IL-6 release in a concentration-dependent manner
increase of IL-6 release compared to vehicle-treated cells (HHSCs [4]; NECA 100 μM, 24 h): 11.9±3.1 fold
effect of agonist on cellular cAMP accumulation (HHSCs [1]): increased cellular cAMP accumulation in a concentration-dependent manner

Nc1ncnc2c1ncn2[C@@H]1O[C@H](CO)[C@@H](O)[C@H]1O [adenosine]
maximal increase of IL-6 release over the basal level (HHSCs [4]): 11.9±3.1 fold
effect on IL-6 release (HHSCs [4]; 24 h): increased IL-6 release in a concentration-dependent manner

CCCn1c(=O)[nH]c2nc(-c3cnn(Cc4noc(-c5ccc(Cl)cc5)n4)c3)[nH]c2c1=O [compound (1), 8-(1-{[5-(4-chlorophenyl)(1,2,4-oxadiazol-3-yl)]methyl}pyrazol-4-yl)-1-propyl-1,3,7-trihydropurine-2,6-dione]
Ki [5]: > 5 µM
effect on NECA-induced collagen production (HHSCs [2]; NECA 10 μM): abolished
Ki [6]: > 5 µM
reduction of NECA-increased IL-6 release (HHSCs [4]; compound 1 μM together with NECA 10 μM): 90.7±0.1%
Ki [7]: > 5 µM
effect on NECA-induced cellular cAMP accumulation (HHSCs [1]; antagonist 1 μM): significantly attenuated

CCCn1c(=O)c2[nH]c(-c3cnn(Cc4cccc(C(F)(F)F)c4)c3)nc2n(CC)c1=O [compound (2), 3-ethyl-1-propyl-8-(1-{[3-(trifluoromethyl)phenyl]methyl}pyrazol-4-yl)-1,3,7-trihydropurine-2,6-dione]
plasma AST levels (ADA^−/− mice): significant reduction
